Reference: US9090599B2, “Heteroarylmethyl amides” (Hoffman-La Roche Inc., priority 2010, dated 2015)
Where two headings read alike, the source gives them in different places.

How the values were obtained:
human CB2 receptor = target: T1, human CB2 receptor (Homo sapiens, UniProt P34972); test: CB2 receptor affinity, [3H]-CP-55,940 displacement, HEK cell membranes; assay type: binding; settings: 10 μM compound, radioligand [3H]-CP-55,940
T1 construct: expressed in transfected cells; host or cells: human embryonic kidney (HEK) cells, Semliki Forest Virus system, membrane preparations
T1 sequence (P34972 whole entry): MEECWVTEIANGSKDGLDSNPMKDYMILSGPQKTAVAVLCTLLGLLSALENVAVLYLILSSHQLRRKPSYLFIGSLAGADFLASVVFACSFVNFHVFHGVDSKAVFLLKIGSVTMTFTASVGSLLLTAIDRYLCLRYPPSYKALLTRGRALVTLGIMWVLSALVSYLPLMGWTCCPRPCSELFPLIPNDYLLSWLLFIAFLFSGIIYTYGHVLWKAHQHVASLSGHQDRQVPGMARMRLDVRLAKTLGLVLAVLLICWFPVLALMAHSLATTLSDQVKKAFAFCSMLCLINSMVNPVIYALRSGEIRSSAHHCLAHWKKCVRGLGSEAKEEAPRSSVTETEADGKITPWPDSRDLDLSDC
Procedure, shortened: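 Membranes from HEK cells transiently expressing human CB2 (Semliki Forest Virus) incubated with [3H]-CP-55,940 ± compound at 10 μM. Bound ligand separated by glass-fibre filtration and counted by scintillation; reported as % inhibition at 10 μM.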

ABCA1 protein = test: Detection of upregulation of ABCA1 protein in THP-1 macrophage cells (ApoA-I binding, high content imaging); assay type: cell-based; settings: 24 hrs with compound, AlexaFluor 647 ApoA-I binding, read-out: ABCA1 protein increasing efficacy EC50
human CB1 receptor = target: T2, human CB1 receptor (Homo sapiens, UniProt P21554); test: CB1 receptor affinity, [3H]-CP-55,940 displacement, HEK cell membranes; assay type: binding; settings: read-out: CB1 receptor affinity [% inhibition @ 10 μM]
T2 construct: expressed in transfected cells; host or cells: human embryonic kidney (HEK) cells, Semliki Forest Virus system, membrane preparations
T2 sequence (P21554 whole entry): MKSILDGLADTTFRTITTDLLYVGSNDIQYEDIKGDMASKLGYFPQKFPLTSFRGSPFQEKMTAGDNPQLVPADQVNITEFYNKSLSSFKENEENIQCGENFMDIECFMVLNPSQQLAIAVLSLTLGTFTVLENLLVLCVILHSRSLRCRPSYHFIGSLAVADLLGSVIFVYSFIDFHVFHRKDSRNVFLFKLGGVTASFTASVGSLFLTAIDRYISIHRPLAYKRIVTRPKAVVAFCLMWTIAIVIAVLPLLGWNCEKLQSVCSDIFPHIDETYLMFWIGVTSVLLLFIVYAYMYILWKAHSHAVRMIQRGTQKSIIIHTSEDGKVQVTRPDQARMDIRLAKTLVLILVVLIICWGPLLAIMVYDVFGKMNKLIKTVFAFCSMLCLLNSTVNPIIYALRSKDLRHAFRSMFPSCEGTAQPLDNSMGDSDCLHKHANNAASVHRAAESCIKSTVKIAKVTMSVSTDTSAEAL
Procedure, shortened: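 Membranes from HEK cells transiently expressing human CB1 (Semliki Forest Virus system) incubated with [3H]-CP-55,940 with or without test compound. Bound and free ligand separated by glass-fibre filtration and bound radioactivity counted by scintillation. Compounds tested at 10 μM, values reported as % inhibition of radioligand binding.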

Compound	inhibition at 10 µM (human CB2 receptor)	EC50 (ABCA1 protein)	inhibition at 10 µM (human CB1 receptor)	inhibition at 10 µM (human CB1 receptor; 10 μM compound, radioligand [3H]-CP-55,940)
COc1cc(CNC(=O)c2cc(-c3ccc(Cl)c(C)c3)c(OCC(F)(F)F)cn2)on1 [Example 74, 4-(4-chloro-3-methylphenyl)-N-((3-methoxyisoxazol-5-yl)methyl)-5-(2,2,2-trifluoroethoxy)picolinamide]	22%	1300 nM	11%	–
O=C(NCc1nc(C(F)(F)F)no1)c1cnc(OCC(F)(F)F)c(-c2ccc3nonc3c2)c1 [Example 100, 5-Benzo[1,2,5]oxadiazol-5-yl-6-(2,2,2-trifluoro-ethoxy)-N-(3-trifluoromethyl-[1,2,4]oxadiazol-5-yl-methyl)-nicotinamide]	8%	580 nM	–	15%
